Reference: patent publication US12240857B2 (priority 2017, dated 2025)
Several values for one entry are separate records, joined by “and”; a condition that tells them apart may be missing. Equal values may be shown once. Read-outs that look alike come from different tables or passages of the source.

Columns and labels:
in vitro [1] = settings: monkey, microsomes
in vitro [2] = settings: mouse
P-gp = P-gp (Homo sapiens, UniProt P08183)
in vitro [3] = settings: human, microsomes
in vitro [4] = settings: African green monkey, Cytotox CC50
wild-type Ebola Zaire [5] = test: microbe, parasite or virus in culture; settings: Zaire ebolavirus, HeLa, read-out: Ebola Zaire EC50
in vitro [6] = settings: mouse, microsomes
in vitro [7] = settings: human
[8] = system: EBOV mucin-domain-deleted glycoprotein pseudotyped VSV; test: microbe, parasite or virus in culture; type: cell-based, Zaire ebolavirus; settings: Zaire ebolavirus, Vero
[9] = system: BDBV mucin-domain-deleted glycoprotein pseudotyped VSV; test: microbe, parasite or virus in culture; type: cell-based, Bundibugyo ebolavirus; settings: Vesicular stomatitis virus, Vero
physchem = settings: pH 7, aqueous buffer, kinetic from dmso stock
[10] = system: full-length Marburgvirus (MARV) GP pseudotyped VSV; test: microbe, parasite or virus in culture; type: cell-based, Marburg marburgvirus; settings: Orthomarburgvirus, read-out: EC50 Pseudotype Assays MARV
EBOV (Mayinga) [11] = test: microbe, parasite or virus in culture; type: cell-based, Zaire ebolavirus
[12] = in vivo
[13] = system: full-length SUDV GP pseudotyped VSV; test: microbe, parasite or virus in culture; type: cell-based, Sudan ebolavirus; settings: Vesicular stomatitis virus, read-out: EC50 Pseudotype Assays SUDV
EBOV (Mayinga) [14] = test: microbe, parasite or virus in culture; type: cell-based, Zaire ebolavirus; remark: listed apart in the source
[15] = system: parent VSV virus expressing the native VSV glycoprotein; test: microbe, parasite or virus in culture; type: cell-based; settings: Vesicular stomatitis virus, Vero, read-out: EC50 Pseudotype Assays VSV
human Cyp-p450 3A4 = human Cyp-p450 3A4 (Homo sapiens, UniProt P08684); test: biochemical
human Cyp-p450 3A4, sequence (P08684 whole entry): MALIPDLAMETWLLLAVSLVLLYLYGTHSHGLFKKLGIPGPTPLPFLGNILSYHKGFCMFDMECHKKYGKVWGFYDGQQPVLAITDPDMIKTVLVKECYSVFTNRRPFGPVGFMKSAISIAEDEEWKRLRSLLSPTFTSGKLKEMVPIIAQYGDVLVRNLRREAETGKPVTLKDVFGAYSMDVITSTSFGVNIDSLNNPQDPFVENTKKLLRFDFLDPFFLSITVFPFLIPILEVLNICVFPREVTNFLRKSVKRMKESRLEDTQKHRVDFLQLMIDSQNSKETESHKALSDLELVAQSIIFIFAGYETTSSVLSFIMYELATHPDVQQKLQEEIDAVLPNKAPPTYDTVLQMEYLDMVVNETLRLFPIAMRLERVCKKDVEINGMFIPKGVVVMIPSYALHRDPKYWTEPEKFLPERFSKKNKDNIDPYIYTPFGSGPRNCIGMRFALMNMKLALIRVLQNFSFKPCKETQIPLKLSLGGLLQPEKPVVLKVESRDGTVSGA

hERG ion channel = hERG ion channel (Homo sapiens, UniProt Q12809); test: biochemical
hERG ion channel, sequence (Q12809 whole entry): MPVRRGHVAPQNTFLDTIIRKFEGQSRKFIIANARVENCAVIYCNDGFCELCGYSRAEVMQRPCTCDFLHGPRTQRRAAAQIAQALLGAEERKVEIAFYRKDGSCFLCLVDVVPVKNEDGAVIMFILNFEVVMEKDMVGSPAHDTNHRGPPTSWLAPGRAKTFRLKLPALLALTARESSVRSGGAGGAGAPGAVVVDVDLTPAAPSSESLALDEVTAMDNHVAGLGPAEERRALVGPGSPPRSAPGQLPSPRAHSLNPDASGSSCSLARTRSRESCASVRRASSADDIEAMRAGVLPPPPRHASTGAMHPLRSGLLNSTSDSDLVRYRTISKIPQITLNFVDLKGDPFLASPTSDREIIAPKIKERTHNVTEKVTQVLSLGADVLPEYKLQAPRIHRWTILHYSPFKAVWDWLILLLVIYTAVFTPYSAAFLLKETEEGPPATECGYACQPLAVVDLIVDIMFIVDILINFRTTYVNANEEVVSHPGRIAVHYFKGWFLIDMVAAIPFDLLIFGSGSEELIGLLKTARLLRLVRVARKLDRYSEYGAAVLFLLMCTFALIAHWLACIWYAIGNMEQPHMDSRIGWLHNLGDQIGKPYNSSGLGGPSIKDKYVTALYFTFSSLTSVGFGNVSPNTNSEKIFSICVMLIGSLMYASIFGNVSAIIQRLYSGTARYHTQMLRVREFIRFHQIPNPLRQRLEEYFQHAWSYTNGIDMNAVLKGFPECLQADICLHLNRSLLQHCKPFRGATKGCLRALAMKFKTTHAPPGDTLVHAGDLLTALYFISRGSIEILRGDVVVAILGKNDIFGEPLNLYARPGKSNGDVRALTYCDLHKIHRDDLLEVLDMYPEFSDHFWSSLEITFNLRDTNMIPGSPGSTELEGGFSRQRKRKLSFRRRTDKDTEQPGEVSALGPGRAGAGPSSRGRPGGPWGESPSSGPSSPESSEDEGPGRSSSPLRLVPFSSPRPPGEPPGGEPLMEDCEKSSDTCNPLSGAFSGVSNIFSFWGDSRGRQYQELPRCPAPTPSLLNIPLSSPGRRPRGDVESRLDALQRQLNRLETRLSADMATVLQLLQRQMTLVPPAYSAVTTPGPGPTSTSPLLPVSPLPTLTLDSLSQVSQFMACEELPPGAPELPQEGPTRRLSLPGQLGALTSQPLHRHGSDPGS

[16] = system: full-length LASV glycoprotein pseudotyped VSV; test: microbe, parasite or virus in culture; type: cell-based, Lassa virus; settings: Vesicular stomatitis virus, read-out: EC50 Pseudotype Assays LASV
in vivo = settings: male, CD-1, mouse
wild-type Sudan Gulu [17] = test: microbe, parasite or virus in culture; settings: Sudan ebolavirus, HeLa, read-out: Sudan Gulu EC50
[18] = system: CYP1A2, CYP2B6, CYP2C9, CYP2C19, CYP2D6; test: in vitro; settings: human
[19] = system: full-length Ebola Zaire GP pseudotyped VSV (EBOV_FL); test: microbe, parasite or virus in culture; type: cell-based; settings: Zaire ebolavirus, read-out: EC50 Pseudotype Assays EBOV_FL
wild-type Ebola Zaire [20] = system: wild-type Ebola Zaire
[21] = system: human Cyp-p450 enzymes 1A2, 2B6, 2C9, 2C19, 2D6
wild-type Sudan Gulu [22] = system: wild-type Sudan Gulu
in vitro [23] = settings: human, Caco-2

P-gp, sequence (P08183 whole entry): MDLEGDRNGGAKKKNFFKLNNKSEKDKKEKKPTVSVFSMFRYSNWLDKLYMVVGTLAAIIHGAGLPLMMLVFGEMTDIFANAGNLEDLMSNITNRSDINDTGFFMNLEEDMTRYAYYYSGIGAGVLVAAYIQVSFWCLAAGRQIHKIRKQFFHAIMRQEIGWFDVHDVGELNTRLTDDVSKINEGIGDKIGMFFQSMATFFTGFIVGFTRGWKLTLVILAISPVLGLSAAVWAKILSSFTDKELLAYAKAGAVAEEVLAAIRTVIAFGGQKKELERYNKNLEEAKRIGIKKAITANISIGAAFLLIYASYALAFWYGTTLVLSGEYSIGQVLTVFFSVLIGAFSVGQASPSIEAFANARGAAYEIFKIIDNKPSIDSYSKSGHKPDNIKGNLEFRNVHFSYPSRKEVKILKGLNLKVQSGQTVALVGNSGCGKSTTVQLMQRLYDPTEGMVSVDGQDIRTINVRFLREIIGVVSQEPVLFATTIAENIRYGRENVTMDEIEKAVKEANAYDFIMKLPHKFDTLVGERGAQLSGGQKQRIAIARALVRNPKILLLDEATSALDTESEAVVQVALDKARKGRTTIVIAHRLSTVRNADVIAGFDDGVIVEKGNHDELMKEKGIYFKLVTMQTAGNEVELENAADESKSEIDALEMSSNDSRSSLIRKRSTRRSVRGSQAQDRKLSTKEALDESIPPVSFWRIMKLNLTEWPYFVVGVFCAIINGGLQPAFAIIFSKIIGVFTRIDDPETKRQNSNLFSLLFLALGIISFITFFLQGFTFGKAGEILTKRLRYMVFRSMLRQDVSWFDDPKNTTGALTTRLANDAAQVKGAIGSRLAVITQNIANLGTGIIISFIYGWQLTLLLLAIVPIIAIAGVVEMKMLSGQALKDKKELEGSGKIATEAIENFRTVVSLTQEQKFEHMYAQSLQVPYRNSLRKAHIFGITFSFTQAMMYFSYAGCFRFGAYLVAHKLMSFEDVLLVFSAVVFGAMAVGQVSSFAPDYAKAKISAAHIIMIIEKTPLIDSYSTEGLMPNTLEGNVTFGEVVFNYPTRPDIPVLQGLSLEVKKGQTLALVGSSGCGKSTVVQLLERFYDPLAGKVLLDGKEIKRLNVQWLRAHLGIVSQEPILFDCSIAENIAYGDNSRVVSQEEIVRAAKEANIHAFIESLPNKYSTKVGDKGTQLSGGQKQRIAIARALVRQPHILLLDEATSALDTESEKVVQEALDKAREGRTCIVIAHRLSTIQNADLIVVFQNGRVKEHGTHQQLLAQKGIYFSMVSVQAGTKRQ

Compound: CC12CC3CC(C(=O)N[C@H]4CC[C@H](N)CC4)(C1)CC(c1ccccc1)(C3)C2.Cl (stereo partly shown) [Example A78]
- half-life (in vitro [1]): > 2 h
- fraction unbound (in vitro [2]): 0.014
- P-gp substrate ID Caco-2 Permeability (+Verapamil) Paap Mean A > B (P-gp): 8.47 10^−6 cm s^−1
- P-gp substrate ID Caco-2 Permeability (+Verapamil) Paap Mean B > A (P-gp): 7.45 10^−6 cm s^−1
- half-life (in vitro [3]): 7.7 h
- CC50 (in vitro [4]): > 10000 nM
- EC50 (wild-type Ebola Zaire [5]): 210 nM
- half-life (in vitro [6]): 4.45 h
- fraction unbound (in vitro [7]): 0.025
- EC50 ([8]; read-out: EC50 EBOV): 20 nM
- EC50 ([8]; read-out: EC50 Pseudotype Assays EBOV): 20 nM
- EC50 ([9]; read-out: EC50 BDBV): 90 nM
- EC50 ([9]; read-out: EC50 Pseudotype Assays BDBV): 90 nM
- solubility (physchem): > 500 µM
- EC50 [10]: 3500 nM
- SI50 (CC50/EC50) (EBOV (Mayinga) [11]): 41.5
- EC50 (EBOV (Mayinga) [11]; Zaire ebolavirus, Vero): 1100 nM
- F ([12]; male, CD-1, mouse): 72%
- CI ([12]; male, CD-1, mouse, iv, 1 mg/kg): 29.72 mL/min/kg
- clearance ([12]; mouse): less than hepatic blood flow
- EC50 [13]: 210 nM
- SI90 (CC50/EC90) (EBOV (Mayinga) [14]): 8.2
- EC90 (EBOV (Mayinga) [14]; Zaire ebolavirus): 5600 nM
- EC50 [15]: > 10000 nM
- IC50 (human Cyp-p450 3A4; Cyp-p450 inhibition IC50, 3A4 (Midazolam)): > 100000 nM
- IC50 (human Cyp-p450 3A4; Cyp-p450 inhibition IC50, 3A4 (Testosterone)): ~28000 nM and 28000 nM
- IC50 (hERG ion channel): > 10000 nM
- EC50 [16]: > 10000 nM
- Vd (in vivo): 14 L/kg
- half-life (in vivo): 7.1 h
- half-life (in vivo; 10 mg/kg): 7 h
- AUC(0-inf) (in vivo; iv, 1 mg/kg): 561 ng·h/mL
- AUC(0-t) (in vivo; iv, 1 mg/kg): 539 ± 23 ng·h/mL
- Cmax (in vivo; iv, 1 mg/kg): 129 ± 40 ng/mL
- Tmax (in vivo; iv, 1 mg/kg): 0.083 h
- Vd (in vivo; iv, 1 mg/kg): 13.9 L/kg
- half-life (in vivo; iv, 1 mg/kg): 5.4 h
- AUC(0-inf) (in vivo; po, 10 mg/kg): 4040 ng·h/mL
- AUC(0-t) (in vivo; po, 10 mg/kg): 3590 ± 576 ng·h/mL
- Cmax (in vivo; po, 10 mg/kg): 239 ± 46 ng/mL
- Tmax (in vivo; po, 10 mg/kg): 6 h
- bioavailability (in vivo; po, 10 mg/kg): 72%
- half-life (in vivo; po, 10 mg/kg): 7.1 h
- EC50 (wild-type Sudan Gulu [17]): 210 nM
- IC50 [18]: ≥ 90000 nM
- EC50 [19]: 50 nM
- Ebola Zaire SI (CC50/EC50) (wild-type Ebola Zaire [20]): 268.2
- Cyp-p450 inhibition IC50, 1A2, 2B6, 2C9, 2C19 [21]: not an inhibitor
- Sudan Gulu SI (CC50/EC50) (wild-type Sudan Gulu [22]): 264.3
- Papp A→B (in vitro [23]): 3.61 ×10⁻⁶ cm/s
- Papp B→A (in vitro [23]): 15.6 ×10⁻⁶ cm/s
- efflux ratio (in vitro [23]): 4.32
